Test results reported in paper PMC9482650, “Quantitative fragmentomics allow affinity mapping of interactomes” (Nature Communications, 2022).
Square brackets hold non-standard residues; d marks the D form. Ends that are not written are not given here. Peptide text beside a SMILES is read from it. pS = N[C@@H](COP(=O)(O)O)C(=O)O

Tests used:
[1] = biological target: T1, SNTG2 PDZ (Homo sapiens, UniProt Q9NY99); test: Holdup assay; type: binding; settings: composite holdup affinity; 0.00=below quantification threshold; read-out: COMP pKd (converted)
T1 sequence (Q9NY99 73-156 limits assumed): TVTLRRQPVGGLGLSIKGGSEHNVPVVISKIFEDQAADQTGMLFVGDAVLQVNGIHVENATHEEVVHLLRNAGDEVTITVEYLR

[2] = biological target: T1, SNTG2 PDZ; test: Competitive fluorescence polarization (FP) assay; type: binding; settings: read-out: pKd FP (converted)
[3] = biological target: T2, SYNJ2BP PDZ (Homo sapiens, UniProt P57105); test: Holdup assay; type: binding; settings: composite holdup affinity; 0.00=below quantification threshold; read-out: COMP pKd (converted)
T2 sequence (P57105 13-100 limits assumed): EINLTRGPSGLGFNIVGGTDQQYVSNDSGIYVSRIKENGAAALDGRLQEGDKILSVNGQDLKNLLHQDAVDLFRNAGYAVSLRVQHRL

[4] = biological target: DLG1_1/2; settings: SPR; ref Kim et al 1998; cited from earlier work
Text: Supplement 41467_2022_33018_MOESM4_ESM.xlsx, sheet "reference DMI interactome" | column: Affinity (mM); pKd, measured in literature

[5] = system: Jurkat cell extract preys; test: PDZ-AP-MS, biotinylated MBP-PDZ baits; type: binding, human
How it was run: (§1)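 Biotinylated His6-AviTag-MBP-PDZ baits, or MBP alone, saturated streptavidin resin and were then biotin-blocked. Each was incubated with 1 mg cell lysate for 2 h at 4 °C, washed, and eluted in 8 M urea. Eluates were digested with Lys-C/trypsin, run by nanoLC-MS/MS on an Orbitrap Elite (top20 CID) and searched against human SwissProt.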

[6] = system: HeLa cell extract preys; test: PDZ-AP-MS, biotinylated MBP-PDZ baits; type: binding, human; settings: PDZ-AP-MS fold change of the PBM-protein prey
How it was run: as §1

[7] = system: HaCat cell extract preys; test: PDZ-AP-MS, biotinylated MBP-PDZ baits; type: binding, human
How it was run: as §1

[8] = biological target: T3, TX1BP3 PDZ (Homo sapiens, UniProt O14907); test: Holdup assay; type: binding; settings: holdup affinity of the PBM peptide of the named protein; sheet PBMcomplexome, lower sub-table; 3.5 appears to be the floor for no detectable binding; read-out: affinity of PBM to TX1BP3 (pKd) (converted)
T3 sequence (O14907 15-112 limits assumed): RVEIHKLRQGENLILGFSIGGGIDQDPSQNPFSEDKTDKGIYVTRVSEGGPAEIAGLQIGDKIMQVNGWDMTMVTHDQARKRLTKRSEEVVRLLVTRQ

[9] = biological target: DLG1_1 PDZ (Homo sapiens, UniProt Q12959); test: Holdup assay; type: binding; settings: holdup affinity of the PBM peptide of the named protein; sheet PBMcomplexome, lower sub-table; 3.5 appears to be the floor for no detectable binding; read-out: affinity of PBM to DLG1_1 (pKd) (converted)
[10] = biological target: SNX27 PDZ (Homo sapiens, UniProt Q96L92); test: Holdup assay; type: binding; settings: holdup affinity of the PBM peptide of the named protein; sheet PBMcomplexome, lower sub-table
[11] = biological target: T4, SCRIB2 PDZ (Homo sapiens, UniProt Q14160); test: Holdup assay; type: binding; settings: holdup affinity of the PBM peptide of the named protein; sheet PBMcomplexome, lower sub-table; 3.5 appears to be the floor for no detectable binding; read-out: affinity of PBM to SCRIB_2 (pKd) (converted)
T4 sequence (Q14160 862-950 limits assumed): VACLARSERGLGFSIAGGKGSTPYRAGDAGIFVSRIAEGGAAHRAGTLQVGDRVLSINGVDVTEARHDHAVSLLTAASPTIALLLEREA

[12] = biological target: SCRIB_1 PDZ (Homo sapiens, UniProt Q14160); test: Holdup assay; type: binding; settings: holdup affinity of the PBM peptide of the named protein; sheet PBMcomplexome, lower sub-table; 3.5 appears to be the floor for no detectable binding; read-out: affinity of PBM to SCRIB_1 (pKd) (converted)
Sequence of SCRIB_1 PDZ (Q14160 728-815 limits assumed): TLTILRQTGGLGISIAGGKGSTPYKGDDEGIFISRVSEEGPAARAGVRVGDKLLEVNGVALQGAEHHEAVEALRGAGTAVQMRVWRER

[13] = biological target: DLG1_2 PDZ (Homo sapiens, UniProt Q12959); test: Holdup assay; type: binding; settings: holdup affinity of the PBM peptide of the named protein; sheet PBMcomplexome, lower sub-table; 3.5 appears to be the floor for no detectable binding; read-out: affinity of PBM to DLG1_2 (pKd) (converted)
[14] = PDZ-AP-MS fold change of the PBM-protein prey, bait MBP-PDZ DLG1_1
[15] = PDZ-AP-MS fold change of the PBM-protein prey, bait MBP-PDZ DLG1_2
[16] = PDZ-AP-MS fold change of the PBM-protein prey, bait MBP-PDZ SCRIB_1
[17] = PDZ-AP-MS fold change of the PBM-protein prey, bait MBP-PDZ SCRIB_2
[18] = PDZ-AP-MS fold change of the PBM-protein prey, bait MBP-PDZ SNX27
[19] = PDZ-AP-MS fold change of the PBM-protein prey, bait MBP-PDZ TX1BP3
[20] = bait DLG1_1 PDZ, fold change of prey
[21] = bait DLG1_2 PDZ, fold change of prey
[22] = bait SCRIB_1 PDZ, fold change of prey
[23] = bait SCRIB_2 PDZ, fold change of prey
[24] = bait SNX27 PDZ, fold change of prey
[25] = bait TX1BP3 PDZ, fold change of prey

Molecule `CC[C@H](C)[C@H](NC(=O)[C@H](CCC(N)=O)NC(=O)[C@@H](NC(=O)[C@H](Cc1c[nH]cn1)NC(=O)[C@H](CCC(N)=O)NC(=O)[C@H](CC(=O)O)NC(=O)[C@H](CCC(=O)O)NC(=O)[C@H](CC(=O)O)NC(=O)CCC(=O)NCCCOCCOCCOCCCNC(=O)CCCC[C@@H]1SC[C@@H]2NC(=O)N[C@@H]21)[C@@H](C)O)C(=O)N[C@H](C(=O)N[C@@H](CCCCNC(C)=O)C(=O)N[C@H](C(=O)O)C(C)C)[C@@H](C)O` [PTEN_Ac] has a Kd [1] of 166 µM and a Kd [2] of 377 µM.

RVRKLPSTTL [RPS6KA1] gave a Kd [3] of 151 µM.

In the case of SSLQSLETSV-OH [ATP2B4], the “pKd, measured in literature” value [4] is given as 8.785, the “Fold changes, Jurkat, DLG1_1” value [5, 14] is given as 3.92 and the “Fold changes, Jurkat, DLG1_2” value [5, 15] is given as 17.9481. For the same molecule, the “Fold changes, Jurkat, SCRIB_1” value [5, 16] was 13.9686, the “Fold changes, Jurkat, SCRIB_2” value [5, 17] was 1.428 and the “Fold changes, Jurkat, SNX27” value [5, 18] was 34.2386. The “Fold changes, Jurkat, TX1BP3” value [5, 19] was 1.643, the “Ratio DLG1_1/MBP” value [5, 20] was 3.92 and the “Difference log2” value ([5]; bait DLG1_2 PDZ vs MBP, enrichment of prey) was 4.166. The “Ratio DLG1_2/MBP” value [5, 21] was 17.9481, the “Ratio SCRIB_1/MBP” value [5, 22] was 13.9686 and the “Ratio SCRIB_2/MBP” value [5, 23] was 1.428. For the same molecule, the “Ratio SNX27/MBP” value [5, 24] was 34.2386, the “Ratio TX1BP3/MBP” value [5, 25] was 1.643 and the “Fold changes, HeLa, DLG1_1” value ([6]; bait MBP-PDZ DLG1_1) was 1.011. For the same molecule, the “Fold changes, HeLa, DLG1_2” value ([6]; bait MBP-PDZ DLG1_2) was 4.653, the “Fold changes, HeLa, SCRIB_1” value ([6]; bait MBP-PDZ SCRIB_1) was 16.1327 and the “Fold changes, HeLa, SCRIB_2” value ([6]; bait MBP-PDZ SCRIB_2) was 1.595. The “Fold changes, HeLa, SNX27” value ([6]; bait MBP-PDZ SNX27) was 14.9763, the “Fold changes, HeLa, TX1BP3” value ([6]; bait MBP-PDZ TX1BP3) was 0.7931 and the “Fold changes, HaCat, DLG1_1” value [7, 14] was 6.858. For the same molecule, the “Fold changes, HaCat, DLG1_2” value [7, 15] was 9.323, the “Fold changes, HaCat, SCRIB_1” value [7, 16] was 1.193 and the “Fold changes, HaCat, SCRIB_2” value [7, 17] was 2.996. For the same molecule, the “Fold changes, HaCat, SNX27” value [7, 18] was 25.0597, the “Fold changes, HaCat, TX1BP3” value [7, 19] was 1.007 and the “Ratio DLG1_1/MBP” value [7, 20] was 6.858. The “Ratio DLG1_2/MBP” value [7, 21] was 9.323, the “Ratio SCRIB_1/MBP” value [7, 22] was 1.193 and the “Ratio SCRIB_2/MBP” value [7, 23] was 2.996. The “Ratio SNX27/MBP” value [7, 24] was 25.0597 and the “Ratio TX1BP3/MBP” value [7, 25] was 1.007.

With `CC(C)C[C@H](NC(=O)[C@@H](NC(=O)[C@@H](NC(=O)[C@H](COP(=O)(O)O)NC(=O)[C@@H]1CCCN1C(=O)[C@H](CC(C)C)NC(=O)[C@H](CCCCN)NC(=O)[C@H](CCCNC(=N)N)NC(=O)[C@@H](NC(=O)[C@@H](N)CCCNC(=N)N)C(C)C)[C@@H](C)O)[C@@H](C)O)C(=O)O` [p-3 phosphorylated RPS6KA1] (H-RVRKLP[pS]TTL-OH) the Kd [3] was 33.1 µM.

HSATSVHTSV [MTMR1] gave a Kd [8] of 158 µM, a Kd [9] of 55 µM and a Kd [10] of 110 µM. For the same molecule, the Kd [11] was 112 µM, the Kd [12] was 162 µM and the Kd [13] was 12.6 µM.
